Measured values as given in patent US20250011299A1, “PYRIDAZINYL AMINO DERIVATIVES AS ALK5 INHIBITORS” (CHIESI FARMACEUTICI S.P.A., priority 2021, published 2025).

The molecules below were run against T1, human ALK5 (Homo sapiens, UniProt P36897) (assay: ADP-GLO Kinases assay of ALK5 enzymatic activity). Conditions: purified recombinant human ALK5, TGFβ1 peptide substrate, pIC50 converted to pKi by Cheng-Prusoff, high ATP protocol (15 μM) for very potent compounds, 25° C.
T1 construct: human ALK5 (recombinant TGF β1 N-term GST-tagged, 80-end); GST (N); purchased
T1 sequence (P36897 80-503 limits assumed): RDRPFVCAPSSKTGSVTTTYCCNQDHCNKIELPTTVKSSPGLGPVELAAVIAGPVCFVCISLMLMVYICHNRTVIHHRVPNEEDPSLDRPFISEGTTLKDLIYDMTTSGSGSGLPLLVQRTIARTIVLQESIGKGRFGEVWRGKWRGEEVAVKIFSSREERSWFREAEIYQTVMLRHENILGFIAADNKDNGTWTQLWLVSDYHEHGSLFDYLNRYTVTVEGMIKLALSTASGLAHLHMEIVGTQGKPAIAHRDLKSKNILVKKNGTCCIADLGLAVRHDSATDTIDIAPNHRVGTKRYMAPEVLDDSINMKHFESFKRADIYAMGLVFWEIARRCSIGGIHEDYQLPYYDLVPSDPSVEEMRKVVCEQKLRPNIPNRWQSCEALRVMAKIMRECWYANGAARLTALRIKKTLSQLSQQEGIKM
Type: biochemical
Procedure, shortened: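 Purified ALK5 preincubated 15 min with compound, then reacted with substrate and ATP; ADP formed read by ADP-Glo luminescence after 120 min or 60 min reaction, all steps at 25° C. 11-point concentration-response; pIC50 converted to pKi via Cheng-Prusoff.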

Row | SMILES | Ki [nM]
1 | O=C(Nc1cc(Nc2cc(-c3cc(Cl)ccc3F)nnc2OCCN2CCCC2)ccn1)C1CC1 [Example 54, N-(4-{[6-(5-chloro-2-fluorophenyl)-3-[2-(pyrrolidin-1-yl)ethoxy]pyridazin-4-yl]amino}pyridin-2-yl)cyclopropanecarboxamide] | ≤ 0.1
2 | CSCCCOc1nnc(-c2cc(Cl)ccc2F)cc1Nc1ccnc(N)c1 [Example 55, N4-[6-(5-chloro-2-fluorophenyl)-3-[3-(methylsulfanyl)propoxy]pyridazin-4-yl]pyridine-2,4-diamine] | 0.126 to 0.316
3 | CS(=O)(=O)CCCOc1nnc(-c2cc(Cl)ccc2F)cc1Nc1ccnc(N)c1 [Example 56, N4-[6-(5-chloro-2-fluorophenyl)-3-(3-methanesulfonylpropoxy)pyridazin-4-yl]pyridine-2,4-diamine] | 0.398 to 3.16
4 | C[S+]([O-])CCCOc1nnc(-c2cc(Cl)ccc2F)cc1Nc1ccnc(N)c1 (stereo not shown) [Example 57, N4-[6-(5-chloro-2-fluorophenyl)-3-(3-methanesulfinylpropoxy)pyridazin-4-yl]pyridine-2,4-diamine] | 0.398 to 3.16
5 | C[N+](C)(C)CCCOc1nnc(-c2cc(Cl)ccc2F)cc1Nc1ccnc(NC(=O)C2CC2)c1 [Example 58, (3-{[6-(5-chloro-2-fluorophenyl)-4-[(2-cyclopropaneamidopyridin-4-yl)amino]pyridazin-3-yl]oxy}propyl)trimethylazanium chloride] | 0.398 to 3.16
6 | O=C(CN1CCNCC1)Nc1cc(Nc2cc(-c3cc(Cl)ccc3F)nnc2SCCO)ccn1 [Example 60, N-(4-{[6-(5-chloro-2-fluorophenyl)-3-[(2-hydroxyethyl)sulfanyl]pyridazin-4-yl]amino}pyridin-2-yl)-2-(piperazin-1-yl)acetamide] | ≤ 0.1
7 | O=C(CN1CCCNCC1)Nc1cc(Nc2cc(-c3cc(Cl)ccc3F)nnc2SCCO)ccn1 [Example 61, N-(4-{[6-(5-chloro-2-fluorophenyl)-3-[(2-hydroxyethyl)sulfanyl]pyridazin-4-yl]amino}pyridin-2-yl)-2-(1,4-diazepan-1-yl)acetamide] | ≤ 0.1
8 | CSc1nnc(-c2cc(Cl)ccc2F)cc1Nc1ccnc(NC(=O)CCN2CCNCC2)c1 [Example 62, N-(4-{[6-(5-chloro-2-fluorophenyl)-3-(methylsulfanyl)pyridazin-4-yl]amino}pyridin-2-yl)-3-(piperazin-1-yl)propanamide] | ≤ 0.1
9 | Cc1ccc(F)c(-c2cc(Nc3ccnc(NC(=O)CCN4CCN(C)CC4)c3)c(OCC(F)(F)F)nn2)n1 [Example 68, N-(4-{[6-(3-fluoro-6-methylpyridin-2-yl)-3-(2,2,2-trifluoroethoxy)pyridazin-4-yl]amino}pyridin-2-yl)-3-(4-methylpiperazin-1-yl)propanamide] | 0.126 to 0.316
10 | COCCOc1nnc(-c2cc(Cl)ccc2F)cc1Nc1ccnc(N)c1 [Example 69, N4-[6-(5-chloro-2-fluorophenyl)-3-(2-methoxyethoxy)pyridazin-4-yl]pyridine-2,4-diamine] | 0.398 to 3.16
11 | CN1CCN(CCOc2nnc(-c3cc(Cl)ccc3F)cc2Nc2ccnc(N)c2)CC1 [Example 70, N4-[6-(5-chloro-2-fluorophenyl)-3-[2-(4-methylpiperazin-1-yl)ethoxy]pyridazin-4-yl]pyridine-2,4-diamine] | 0.398 to 3.16
12 | CN1CCN(CCC(=O)Nc2cc(Nc3cc(-c4cc(Cl)ccc4F)nnc3OC[C@H]3C[C@@H](O)C3)ccn2)CC1 [Example 71, Cis N-(4-{[6-(5-chloro-2-fluorophenyl)-3-[(3-hydroxycyclobutyl)methoxy]pyridazin-4-yl]amino}pyridin-2-yl)-3-(4-methylpiperazin-1-yl)propanamide] | ≤ 0.1
13 | CN1CCN(CCC(=O)Nc2cc(Nc3cc(-c4cc(Cl)ccc4F)nnc3OCC3COC(C)(C)O3)ccn2)CC1 (stereo not shown) [Example 77, N-(4-{[6-(5-chloro-2-fluorophenyl)-3-[(2,2-dimethyl-1,3-dioxolan-4-yl)methoxy]pyridazin-4-yl]amino}pyridin-2-yl)-3-(4-methylpiperazin-1-yl)propanamide] | ≤ 0.1
14 | CN1CCN(CCC(=O)Nc2cc(Nc3cc(-c4cc(Cl)ccc4F)nnc3OCC(O)CO)ccn2)CC1 (stereo not shown) [Example 78, N-(4-{[6-(5-chloro-2-fluorophenyl)-3-(2,3-dihydroxypropoxy)pyridazin-4-yl]amino}pyridin-2-yl)-3-(4-methylpiperazin-1-yl)propanamide] | ≤ 0.1
15 | CN1CCN(CCC(=O)Nc2cc(Nc3cc(-c4cc(Cl)ccc4F)nnc3OCC3COC(=O)O3)ccn2)CC1 (stereo not shown) [Example 79, N-(4-{[6-(5-chloro-2-fluorophenyl)-3-[(2-oxo-1,3-dioxolan-4-yl)methoxy]pyridazin-4-yl]amino}pyridin-2-yl)-3-(4-methylpiperazin-1-yl)propanamide] | ≤ 0.1
16 | CN1CCN(CCC(=O)Nc2cc(Nc3cc(-c4cc(Cl)ccc4F)nnc3O[C@H]3C[C@@H](CO)C3)ccn2)CC1 [Example 80, N-(4-{[6-(5-chloro-2-fluorophenyl)-3-[3-(hydroxymethyl)cyclobutoxy]pyridazin-4-yl]amino}pyridin-2-yl)-3-(4-methylpiperazin-1-yl)propanamide] | ≤ 0.1
17 | CN1CCN(CCC(=O)Nc2cc(Nc3cc(-c4cc(Cl)ccc4F)nnc3OCc3cccc(O)c3)ccn2)CC1 [Example 81, N-(4-{[6-(5-chloro-2-fluorophenyl)-3-[(3-hydroxyphenyl)methoxy]pyridazin-4-yl]amino}pyridin-2-yl)-3-(4-methylpiperazin-1-yl)propanamide] | ≤ 0.1
18 | CN1CC2CCC1CN(CC(=O)Nc1cc(Nc3cc(-c4cc(Cl)ccc4F)nnc3SCCO)ccn1)C2 (stereo not shown) [Example 82, N-(4-{[6-(5-chloro-2-fluorophenyl)-3-[(2-hydroxyethyl)sulfanyl]pyridazin-4-yl]amino}pyridin-2-yl)-2-{6-methyl-3,6-diazabicyclo[3.2.2]nonan-3-yl}acetamide] | ≤ 0.1
19 | CN1CCN([C@H]2C[C@@H](C(=O)Nc3cc(Nc4cc(-c5cc(Cl)ccc5F)nnc4SCCO)ccn3)C2)CC1 [Example 83, Cis N-(4-{[6-(5-chloro-2-fluorophenyl)-3-[(2-hydroxyethyl)sulfanyl]pyridazin-4-yl]amino}pyridin-2-yl)-3-(4-methylpiperazin-1-yl)cyclobutane-1-carboxamide] | ≤ 0.1
20 | CN1CCCN(CCC(=O)Nc2cc(Nc3cc(-c4cc(Cl)ccc4F)nnc3SCCO)ccn2)CC1 [Example 84, N-(4-{[6-(5-chloro-2-fluorophenyl)-3-[(2-hydroxyethyl)sulfanyl]pyridazin-4-yl]amino}pyridin-2-yl)-3-(4-methyl-1,4-diazepan-1-yl)propanamide] | ≤ 0.1
21 | CN1CCN(CCC(=O)Nc2cc(Nc3cc(-c4cc(Cl)ccc4F)nnc3SCC3COC(C)(C)O3)ccn2)CC1 (stereo not shown) [Example 85, N-(4-{[6-(5-chloro-2-fluorophenyl)-3-{[(2,2-dimethyl-1,3-dioxolan-4-yl)methyl]sulfanyl}pyridazin-4-yl]amino}pyridin-2-yl)-3-(4-methylpiperazin-1-yl)propanamide] | ≤ 0.1
22 | CN1CCN(CCC(=O)Nc2cc(Nc3cc(-c4cc(Cl)ccc4F)nnc3SCC(O)CO)ccn2)CC1 (stereo not shown) [Example 86, N-(4-{[6-(5-chloro-2-fluorophenyl)-3-[(2,3-dihydroxypropyl)sulfanyl]pyridazin-4-yl]amino}pyridin-2-yl)-3-(4-methylpiperazin-1-yl)propanamide] | ≤ 0.1
